Results on 20 compounds are retold here after patent US20180263996A1, “ARYL SULTAM DERIVATIVES AS RORc MODULATORS” (Genentech, Inc., priority 2015, published 2018).

The test concerns the target T1, RORc (Homo sapiens, UniProt P51449).
T1 construct: host or cells: E. coli
T1 sequence (P51449 269-508 limits assumed): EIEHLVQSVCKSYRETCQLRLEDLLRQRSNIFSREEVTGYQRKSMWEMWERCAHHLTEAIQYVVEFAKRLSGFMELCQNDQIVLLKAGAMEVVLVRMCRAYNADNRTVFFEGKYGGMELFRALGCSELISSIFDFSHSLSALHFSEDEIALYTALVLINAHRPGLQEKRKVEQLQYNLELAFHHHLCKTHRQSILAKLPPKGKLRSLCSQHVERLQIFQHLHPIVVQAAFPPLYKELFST
The test can be described thus: In Vitro RORc Ligand Binding Assay. Conditions: IC50 values for RORc. On the procedure: This assay was used to determine a compound's potency in inhibiting activity of RORc by determining, Kiapp, IC50, or percent inhibition values.
On day of the assay, 100 uL of 0.05% CHAPS (in deionized H2O) was added to all wells of the GFB Unifilter plate and allowed soak for 1 h. A wash buffer of 50 mM HEPES (pH 7.4), 150 mM NaCl, and 5 mM MgCl2 was prepared to wash the filter plate. To prepare an assay buffer, BSA was added to the wash buffer to reach 0.01% and DTT was added to reach 1 mM.
The 20× compound stocks were diluted in DMSO with Assay Buffer 4-fold to reach 5× the final test concentration in 25% DMSO (10 uL compound+30 uL Assay Buffer). Solutions were mixed by aspiration several times with a pipette set on 50 uL volume.
For two point screening, 10 mM stock compound solutions were diluted in DMSO to obtain 200 uM (20× the high test concentration) and then diluted 10-fold further to reach 20 uM (20× the low test concentration). The 20× stocks were diluted 4-fold with Assay Buffer (10 uL compound+30 uL Assay Buffer) to reach 5× the test concentrations (50 uM and 5 uM) and 10 uL were added to two assay plates for the duplicate wells. With each concentration tested on 2 plates, each set of 80 compounds used 4 assay plates (1 uM and 10 uM, with n=2).
For 25-hydroxycholesterol in 25% DMSO/75% Assay Buffer; 10 uL per well was used for NSB samples. Wells for Total Binding and No Receptor sample determination contained 10 uL of 25% DMSO/75% Assay Buffer per well.
Add 20 uL to all wells to reach 6 nM final concentration in the assay.
Stock receptor solution was diluted in assay buffer to obtain 1.5 ug/mL in Assay Buffer. 20 uL was added to all wells. For No Receptor samples, 20 uL Assay Buffer was substituted for receptor solution.
Assay plates were 96-well polypropylene V-bottom plates. […] 10 uL of 25% DMSO/75% Assay Buffer was added to Total Binding or No Receptor wells. 10 uL of 5 uM 25-hydroxycholesterol in 25% DMSO/75% Assay Buffer was added to NSB wells. […] 20 uL of 1.5 ug/mL RORc receptor was added to wells (or 40 uL Assay Buffer to No R wells). Following addition to the wells, the plates were incubated 3 h at 25° C.
Using a Packard Filtermate Harvester, the filter plate were washed 4 times following transfer of the incubated samples. Plates were dry-filtered completely (2 h at 50° C. or overnight at room temperature). 50 uL Microscint 0 was added to all wells and read on Topcount protocol Inverted.
Final concentrations were as follows: 50 mM HEPES buffer (pH 7.4); 150 mM NaCl; 1 mM DTT; 5 mM MgCl2; 0.01% BSA; 5% DMSO; 0.6 ug/mL RORc receptor; 6 nM 25-[^3H]hydroxycholesterol. For NSB wells, 1 uM 25-hydroxycholesterol was also present.
Consider `CC(NC(=O)c1cncs1)c1cc(F)c(CN2[C@@H](C)CC[C@H](c3ccccc3)S2(=O)=O)cc1F` (stereo in doubt) [Compound 72, N-[1-[2,5-difluoro-4-[[(3S,6R)-3-methyl-1,1-dioxo-6-phenyl-thiazinan-2-yl]methyl]phenyl]ethyl]thiazole-5-carboxamide], for which the half-inhibitory concentration (IC50) (commonly the concentration at which inhibition is half-maximal) was 6.3 nM. In other words, the single-digit nanomolar range.

In the case of `Cc1nnc(C(=O)NC(C)c2cc(F)c(CN3[C@@H](C)CC[C@H](c4ccccc4)S3(=O)=O)cc2F)o1` (stereo in doubt) [Compound 73, N-[1-[2,5-difluoro-4-[[(3S,6R)-3-methyl-1,1-dioxo-6-phenyl-thiazinan-2-yl]methyl]phenyl]ethyl]-5-methyl-1,3,4-oxadiazole-2-carboxamide], the IC50 stood at 9.3 nM.

As for `COc1cc(C(=O)NC(C)c2cc(F)c(CN3[C@@H](C)CC[C@H](c4ccccc4)S3(=O)=O)cc2F)on1` (stereo in doubt) [Compound 74, N-[1-[2,5-difluoro-4-[[(3S,6R)-3-methyl-1,1-dioxo-6-phenyl-thiazinan-2-yl]methyl]phenyl]ethyl]-3-methoxy-isoxazole-5-carboxamide], the IC50 was found to be 7.3 nM. The IC50 values of the last two compounds are within 1.5-fold of each other.

`CC(NC(=O)c1cnco1)c1cc(F)c(CN2[C@@H](C)CC[C@H](c3ccccc3)S2(=O)=O)cc1F` (stereo in doubt) [Compound 75, N-[1-[2,5-difluoro-4-[[(3S,6R)-3-methyl-1,1-dioxo-6-phenyl-thiazinan-2-yl]methyl]phenyl]ethyl]oxazole-5-carboxamide] displayed an IC50 of 76.1 nM.

Compound `CC(NC(=O)c1csc(N)n1)c1cc(F)c(CN2[C@@H](C)CC[C@H](c3ccccc3)S2(=O)=O)cc1F` (stereo in doubt) [Compound 78, 2-amino-N-[1-[2,5-difluoro-4-[[(3S,6R)-3-methyl-1,1-dioxo-6-phenyl-thiazinan-2-yl]methyl]phenyl]ethyl]thiazole-4-carboxamide] came in with an IC50 of 215 nM.

The compound `CC(NC(=O)c1csnn1)c1cc(F)c(CN2[C@@H](C)CC[C@H](c3ccccc3)S2(=O)=O)cc1F` (stereo in doubt) [Compound 79, N-[1-[2,5-difluoro-4-[[(3S,6R)-3-methyl-1,1-dioxo-6-phenyl-thiazinan-2-yl]methyl]phenyl]ethyl]thiadiazole-4-carboxamide] displayed an IC50 of 3 nM.

`C[C@H]1CC[C@H](c2ccccc2)S(=O)(=O)N1Cc1ccc(C2(COCC3COC3)CCOCC2)cc1F` [Compound 3, (3S,6R)-2-[[2-fluoro-4-[4-(oxetan-3-ylmethoxymethyl)tetrahydropyran-4-yl]phenyl]methyl]-3-methyl-6-phenyl-thiazinane 1,1-dioxide] came in with an IC50 of 44.5 nM.

With `C[C@H]1CC[C@H](c2ccccc2)S(=O)(=O)N1Cc1cc(F)c([C@H](CC2COC2)C(N)=O)cc1F` [Compound 4, (2S)-2-[2,5-difluoro-4-[[(3S,6R)-3-methyl-1,1-dioxo-6-phenyl-thiazinan-2-yl]methyl]phenyl]-3-(oxetan-3-yl)propanamide], the IC50 was found to be 31.8 nM.

`C[C@H]1CC[C@H](c2ccccc2)S(=O)(=O)N1Cc1cc(F)c([C@@H](CC2COC2)C(N)=O)cc1F` [Compound 5, (2R)-2-[2,5-difluoro-4-[[(3S,6R)-3-methyl-1,1-dioxo-6-phenyl-thiazinan-2-yl]methyl]phenyl]-3-(oxetan-3-yl)propanamide] yielded a 50% inhibitory concentration (IC50) of 31 nM.

The compound `C[C@H]1CC[C@H](c2ccccc2)S(=O)(=O)N1Cc1cc(F)c([C@H](OC2CCOCC2)C(N)=O)cc1F` [Compound 7, (2S)-2-[2,5-difluoro-4-[[(3S,6R)-3-methyl-1,1-dioxo-6-phenyl-thiazinan-2-yl]methyl]phenyl]-2-tetrahydropyran-4-yloxy-acetamide] displayed a concentration for half-maximal inhibition (IC50) of 64.2 nM.

Compound `C[C@H]1CC[C@H](c2ccccc2)S(=O)(=O)N1Cc1cc(F)c([C@@H](OC2COC2)C(N)=O)cc1F` [Compound 8, (2R)-2-[2,5-difluoro-4-[[(3S,6R)-3-methyl-1,1-dioxo-6-phenyl-thiazinan-2-yl]methyl]phenyl]-2-(oxetan-3-yloxy)acetamide] came in with an IC50 of 31 nM.

On to `C[C@H]1CC[C@H](c2ccccc2)S(=O)(=O)N1Cc1cc(F)c([C@H](OC2COC2)C(N)=O)cc1F` [Compound 9, (2S)-2-[2,5-difluoro-4-[[(3S,6R)-3-methyl-1,1-dioxo-6-phenyl-thiazinan-2-yl]methyl]phenyl]-2-(oxetan-3-yloxy)acetamide], for which the IC50 came out at 34.8 nM.

`C[C@H]1CC[C@H](c2ccccc2)S(=O)(=O)N1Cc1cc(F)c([C@@](C)(CO)C(N)=O)cc1F` [Compound 10, (2S)-2-[2,5-difluoro-4-[[(3S,6R)-3-methyl-1,1-dioxo-6-phenyl-thiazinan-2-yl]methyl]phenyl]-3-hydroxy-2-methyl-propanamide] came in with a half-maximal inhibitory concentration (IC50) of 35.4 nM.

`C[C@H]1CC[C@H](c2ccccc2)S(=O)(=O)N1Cc1cc(F)c([C@](C)(CO)C(N)=O)cc1F` [Compound 11, (2R)-2-[2,5-difluoro-4-[[(3S,6R)-3-methyl-1,1-dioxo-6-phenyl-thiazinan-2-yl]methyl]phenyl]-3-hydroxy-2-methyl-propanamide] showed an IC50 of 18.7 nM.

In turn, `C[C@H]1CC[C@H](c2ccccc2)S(=O)(=O)N1Cc1cc(F)c(C2(OCC(N)=O)CC3(COC3)C2)cc1F` [Compound 12, 2-[[6-[2,5-difluoro-4-[[(3S,6R)-3-methyl-1,1-dioxo-6-phenyl-thiazinan-2-yl]methyl]phenyl]-2-oxaspiro[3.3]heptan-6-yl]oxy]acetamide] gave an IC50 of 2.3 nM.

`CNC(=O)COC1(c2cc(F)c(CN3[C@@H](C)CC[C@H](c4ccccc4)S3(=O)=O)cc2F)CC2(COC2)C1` [Compound 13, 2-[[6-[2,5-difluoro-4-[[(3S,6R)-3-methyl-1,1-dioxo-6-phenyl-thiazinan-2-yl]methyl]phenyl]-2-oxaspiro[3.3]heptan-6-yl]oxy]-N-methyl-acetamide]: the concentration for half-maximal inhibition (IC50) was determined as 2.1 nM.

As to `C=CCOC1(c2cc(F)c(CN3[C@@H](C)CC[C@H](c4ccccc4)S3(=O)=O)cc2F)CC2(COC2)C1` [Compound 14, (3S,6R)-2-[[4-(6-allyloxy-2-oxaspiro[3.3]heptan-6-yl)-2,5-difluoro-phenyl]methyl]-3-methyl-6-phenyl-thiazinane 1,1-dioxide], the IC50 amounted to 2.2 nM.

The compound `C[C@H]1CC[C@H](c2ccccc2)S(=O)(=O)N1Cc1cc(F)c(C2=CC(=O)C2)cc1F` [Compound 15, 3-[2,5-difluoro-4-[[(3S,6R)-3-methyl-1,1-dioxo-6-phenyl-thiazinan-2-yl]methyl]phenyl]cyclobut-2-en-1-one] displayed an IC50 of 6.5 nM.

Regarding `C[C@H]1CC[C@H](c2ccccc2)S(=O)(=O)N1Cc1cc(F)c([C@H](CCC#N)C(N)=O)cc1F` [Compound 16, (2S)-4-cyano-2-[2,5-difluoro-4-[[(3S,6R)-3-methyl-1,1-dioxo-6-phenyl-thiazinan-2-yl]methyl]phenyl]butanamide], the concentration for half-maximal inhibition (IC50) is 56.8 nM.

As to `C[C@H]1CC[C@H](c2ccccc2)S(=O)(=O)N1Cc1cc(F)c([C@@H](CCC#N)C(N)=O)cc1F` [Compound 17, (2R)-4-cyano-2-[2,5-difluoro-4-[[(3S,6R)-3-methyl-1,1-dioxo-6-phenyl-thiazinan-2-yl]methyl]phenyl]butanamide], the half-inhibitory concentration (IC50) was 82.7 nM.
